Laboratory results taken from article PMC5253108 (European journal of medicinal chemistry, 2016).

Legend:
HepG2 liver cells = assay: In vitro cytotoxicity, Cell-Titer Glo viability, HepG2; assay type: cell-based; conditions: 48 hours
[1] = test system: BEAS2B lung epithelial cells; assay: In vitro cytotoxicity, Cell-Titer Glo viability, BEAS2B; assay type: cell-based; conditions: 48 hours
[2] = In vitro liver microsomal stability; assay type: in vitro ADME, mouse; conditions: for metabolically converted after one hour: corresponds to mouse liver microsome values of Table 1
HEK293 kidney cells = assay type: cell-based; conditions: 48 hours, Cell-Titer Glo
Swiss Webster mice = assay: Rotarod assay of sensorimotor coordination in mice; conditions: for sensorimotor impairment on rotarod: 40 mg/kg i.p., Swiss Webster mice, 10, 30 and 60 min
[3] = Solubility in rotarod vehicle; conditions: 50% PBS, 40% propylene glycol, 10% DMSO; for 40 mg/kg i.p. dosing
[4] = In vitro liver microsomal stability; assay type: in vitro ADME; conditions: human, microsomes
[5] = Solubility at 10 µM in PBS with 1% DMSO; assay type: physicochemical; conditions: aqueous buffer, kinetic from dmso stock

Compound	Toxicity in HEPG2 (Liver) LD50 (HepG2 liver cells)	Toxicity in BEAS 2B (Lung) LD50 [1]	loss at 1 h in mouse liver microsomes [2]	Toxicity in HEK293 (Kidney) LD50 (HEK293 kidney cells)	sensorimotor impairment on rotarod (Swiss Webster mice)	metabolically converted after one hour [2]	solubility in the vehicle [3]	remaining at 1 h [4]	solubility [5]	toxicity in HEK293 cells (HEK293 kidney cells)	sensorimotor impairment on rotarod, positive control (Swiss Webster mice; 5 mg/kg i.p., Swiss Webster mice)
[2H]C([2H])([2H])Oc1ccc2c(c1)C(=O)N1CCC[C@H]1c1c(C(=O)OCC)ncn1-2 [Compound 5a]	>400 µM	>400 µM	less than 20%	>400 µM							
CCOC(=O)c1ncn2c1[C@@H]1CCCN1C(=O)c1cc(O)ccc1-2 [Compound 6]	>400 µM	>400 µM	less than 20%		did not induce sensorimotor impairment						
[2H]C([2H])([2H])Oc1ccc2c(c1)C(=O)N1CCC[C@H]1c1c(C(=O)OC(C)(C)C)ncn1-2 [Compound 7a]	>400 µM	>200 µM		>100 µM							
CC(C)(C)OC(=O)c1ncn2c1[C@@H]1CCCN1C(=O)c1cc(O)ccc1-2 [Compound 8]	>400 µM	>400 µM									
[2H]C([2H])([2H])Oc1ccc2c(c1)C(=O)N1CCC[C@H]1c1c(C(=O)O)ncn1-2 [Compound 9a]	>400 µM	>400 µM	less than 20%	>400 µM	did not induce sensorimotor impairment						
COC(=O)c1ncn2c1[C@@H]1CCCN1C(=O)c1cc(OC)ccc1-2 [Compound 10, (S)-Methyl-7-methoxy-9-oxo-11,12,13,13a-tetrahydro-9H-benzo[e]imidazo[5,1-c]pyrrolo[1,2-a][1,4]diazepine-1-carboxylate]	>400 µM	>400 µM		>400 µM	did not induce any sensorimotor impairment	30%					
[2H]C([2H])([2H])Oc1ccc2c(c1)C(=O)N1CCC[C@H]1c1c(C(=O)OC)ncn1-2 [Compound 10a]	>400 µM	>400 µM	less than 20%	>400 µM	most severe motor impairment	15%					
COc1ccc2c(c1)C(=O)N1CCC[C@H]1c1c(C(=O)OCC(C)C)ncn1-2 [Compound 11, (S)-Isobutyl-7-methoxy-9-oxo-11,12,13,13a-tetrahydro-9H-benzo[e]imidazo[5,1-c]pyrrolo[1,2-a][1,4]diazepine-1-carboxylate]	>200 µM	>200 µM		>100 µM			not soluble in the vehicle	< 80%			
[2H]C([2H])([2H])Oc1ccc2c(c1)C(=O)N1CCC[C@H]1c1c(C(=O)OCC(C)C)ncn1-2 [Compound 11a]	>200 µM	>200 µM		>100 µM	most severe motor impairment			< 80%			
COc1ccc2c(c1)C(=O)N1CCC[C@H]1c1c(C(=O)OC(C(F)(F)F)C(F)(F)F)ncn1-2 [Compound 12]	>400 µM	>400 µM		>200 µM			not soluble in the vehicle		< 10 µM		
[2H]C([2H])([2H])Oc1ccc2c(c1)C(=O)N1CCC[C@H]1c1c(C(=O)OC(C(F)(F)F)C(F)(F)F)ncn1-2 [Compound 12a]	>400 µM	>400 µM		>200 µM			not soluble in the vehicle	< 80%			
CCSC(=O)c1ncn2c1[C@@H]1CCCN1C(=O)c1cc(OC)ccc1-2 [Compound 13]	>100 µM	>100 µM		>100 µM			not soluble in the vehicle		< 10 µM		
[2H]C([2H])([2H])Oc1ccc2c(c1)C(=O)N1CCC[C@H]1c1c(C(=O)SCC)ncn1-2 [Compound 13a]	>100 µM	>100 µM		>100 µM			not soluble in the vehicle		< 10 µM		
COc1ccc2c(c1)C(=O)N1CCC[C@H]1c1c(C(=O)SC(C)(C)C)ncn1-2 [Compound 14]	>100 µM	>100 µM		18.8 ± 2.4 µM			not soluble in the vehicle		< 10 µM		
[2H]C([2H])([2H])Oc1ccc2c(c1)C(=O)N1CCC[C@H]1c1c(C(=O)SC(C)(C)C)ncn1-2 [Compound 14a]	>100 µM	>100 µM		16.8 ± 2.0 µM			not soluble in the vehicle		< 10 µM		
CNC(=O)c1ncn2c1[C@@H]1CCCN1C(=O)c1cc(OC)ccc1-2 [Compound 15]	>400 µM	>400 µM		>100 µM	most severe motor impairment						
[2H]C([2H])([2H])Oc1ccc2c(c1)C(=O)N1CCC[C@H]1c1c(C(=O)NC)ncn1-2 [Compound 15a]	>400 µM	>400 µM		>100 µM							
[2H]C([2H])([2H])Oc1ccc2c(c1)C(=O)N1CCC[C@H]1c1c(C(=O)N(C)C)ncn1-2 [Compound 16a]	>400 µM	>400 µM	less than 20%	>400 µM	did not induce sensorimotor impairment						
CCNC(=O)c1ncn2c1[C@@H]1CCCN1C(=O)c1cc(OC)ccc1-2 [Compound 17]	>400 µM	>400 µM		>400 µM							
[2H]C([2H])([2H])Oc1ccc2c(c1)C(=O)N1CCC[C@H]1c1c(C(=O)NCC)ncn1-2 [Compound 17a]	>400 µM		less than 20%		did not induce sensorimotor impairment						
COc1ccc2c(c1)C(=O)N1CCC[C@H]1c1c(C(=O)NC(C)(C)C)ncn1-2 [Compound 18]	>400 µM	>400 µM		>200 µM							
[2H]C([2H])([2H])Oc1ccc2c(c1)C(=O)N1CCC[C@H]1c1c(C(=O)NC(C)(C)C)ncn1-2 [Compound 18a]	>400 µM				most severe motor impairment						
COc1ccc2c(c1)C(=O)N1CCC[C@H]1c1c(C(=O)NC3CC3)ncn1-2 [Compound 19]	>400 µM	>400 µM	less than 20%	>200 µM				< 80%		some toxicity	
[2H]C([2H])([2H])Oc1ccc2c(c1)C(=O)N1CCC[C@H]1c1c(C(=O)NC3CC3)ncn1-2 [Compound 19a]	>400 µM		less than 20%							some toxicity	
CN1C(=O)CN=C(c2ccccc2)c2cc(Cl)ccc21 [diazepam, reference compound]											greatest impairment of sensorimotor steadiness at 10 minutes
